Test results from patent US9187472B2 (AbbVie Inc., priority 2012, dated 2015).

What was measured:
PC3 cells = assay: NAMPT Cell Proliferation Assay; format: cell-based; conditions: Homo sapiens, PC-3, 120 h, 5 days incubation, cell viability by Cell Titer Glo
Procedure, shortened: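 IC50 values derive from sigmoidal dose-response fits of percent inhibition of PC3 viability, measured by luminescence after 5 days of compound treatment. Cells (500/well, RPMI containing 10% heat-inactivated FBS) are allowed to attach overnight, and compounds are tested at 10-fold dilutions between 10 μM and 1×10^−5 μM.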

[1] = molecular target: NAMPT (human, recombinant, C-terminally His-tagged) (Homo sapiens, UniProt P43490); assay: Time-Resolved Fluorescence Resonance Energy Transfer (TR-FRET) Binding Assay of NAMPT; conditions: without substrates; 6.8 nM NAMPT, 200 nM probe, 3 hours equilibration
Procedure, shortened: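 Read-out is the time-resolved FRET ratio Em520/Em495 (excitation 337 nm) between a terbium anti-His antibody (1 nM) on the enzyme and an Oregon Green 488-labelled nicotinamide-competitive inhibitor probe (200 nM). Enzyme was 6.8 nM, DMSO 2%, pH 7.5 HEPES buffer; 3 h room-temperature equilibration preceded reading.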

NAMPT = NAMPT (Homo sapiens, UniProt P43490); assay: TR-FRET Binding Assay of NAMPT with PRPP; conditions: with 200 μM PRPP and 2.5 mM ATP; 2 nM NAMPT, 2 nM probe, 16 hours equilibration
Procedure, shortened: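 NAMPT 2 nM + probe 2 nM + Tb-anti-His Ab 1 nM; PRPP 200 μM, ATP 2.5 mM, DMSO 2%; 16 h equilibration before TR-FRET read.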

Chain of NAMPT (P43490 whole entry): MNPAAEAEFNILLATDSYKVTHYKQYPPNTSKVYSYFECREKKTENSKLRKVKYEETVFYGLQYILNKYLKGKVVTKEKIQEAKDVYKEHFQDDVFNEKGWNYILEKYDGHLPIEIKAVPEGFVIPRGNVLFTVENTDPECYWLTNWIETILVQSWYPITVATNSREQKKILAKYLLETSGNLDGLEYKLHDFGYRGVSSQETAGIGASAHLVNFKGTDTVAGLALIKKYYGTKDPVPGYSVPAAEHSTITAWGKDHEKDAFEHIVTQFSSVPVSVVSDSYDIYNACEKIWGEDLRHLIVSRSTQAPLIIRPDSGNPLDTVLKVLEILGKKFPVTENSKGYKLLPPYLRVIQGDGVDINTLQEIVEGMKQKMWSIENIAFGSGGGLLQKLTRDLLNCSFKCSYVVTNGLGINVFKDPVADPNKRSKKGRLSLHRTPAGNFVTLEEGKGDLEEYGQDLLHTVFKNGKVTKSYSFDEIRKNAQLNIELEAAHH
Chain of NAMPT (human, recombinant, C-terminally His-tagged) (P43490 whole entry): as above

Structure (SMILES) | IC50 (PC3 cells) | IC50 [1] | IC50 (NAMPT)
O=C(NCc1ccn2ccnc2c1)c1ccc(C2CN(C(=O)c3ccccc3)C2)cc1 [Example 549, 4-(1-benzoylazetidin-3-yl)-N-(imidazo[1,2-a]pyridin-7-ylmethyl)benzamide] | 9.42 nM | 81.2 nM | 0.224 nM
CC(C)(O)C(=O)N1CC(c2ccc(C(=O)NCc3ccn4ccnc4c3)cc2)C1 [Example 550, 4-[1-(2-hydroxy-2-methylpropanoyl)azetidin-3-yl]-N-(imidazo[1,2-a]pyridin-7-ylmethyl)benzamide] | 174 nM | 762 nM | 0.427 nM
O=C(NCc1ccn2ccnc2c1)c1ccc(C2CN(C(=O)CC3CCOCC3)C2)cc1 [Example 551, N-(imidazo[1,2-a]pyridin-7-ylmethyl)-4-[1-(tetrahydro-2H-pyran-4-ylacetyl)azetidin-3-yl]benzamide] | 55.1 nM | 713 nM | 0.392 nM
O=C(NCc1ccn2ccnc2c1)c1ccc(C2CN(C(=O)c3cccs3)C2)cc1 [Example 552, N-(imidazo[1,2-a]pyridin-7-ylmethyl)-4-[1-(thiophen-2-ylcarbonyl)azetidin-3-yl]benzamide] | 42.6 nM | 184 nM | 0.543 nM
CC(C)CC(=O)N1CCC(O)(c2ccc(C(=O)NCc3ccn4ccnc4c3)s2)CC1 [Example 553, 5-[4-hydroxy-1-(3-methylbutanoyl)piperidin-4-yl]-N-(imidazo[1,2-a]pyridin-7-ylmethyl)thiophene-2-carboxamide] | 103 nM | 478 nM | 0.592 nM
CC(C)C(=O)N1CCC(O)(c2ccc(C(=O)NCc3ccn4ccnc4c3)s2)CC1 [Example 554, 5-[4-hydroxy-1-(2-methylpropanoyl)piperidin-4-yl]-N-(imidazo[1,2-a]pyridin-7-ylmethyl)thiophene-2-carboxamide] | 177 nM | 451 nM | 0.837 nM
CC(C)(C)CC(=O)N1CCC(O)(c2ccc(C(=O)NCc3ccn4ccnc4c3)s2)CC1 [Example 555, 5-[1-(3,3-dimethylbutanoyl)-4-hydroxypiperidin-4-yl]-N-(imidazo[1,2-a]pyridin-7-ylmethyl)thiophene-2-carboxamide] | 33.2 nM | 427 nM | 0.749 nM
O=C(NCc1ccn2ccnc2c1)c1ccc(C2(O)CCN(C(=O)c3ccccc3)CC2)s1 [Example 556, 5-(1-benzoyl-4-hydroxypiperidin-4-yl)-N-(imidazo[1,2-a]pyridin-7-ylmethyl)thiophene-2-carboxamide] | 6.55 nM | 5.43 nM | 0.407 nM
CC(C)S(=O)(=O)N1CC(c2ccc(C(=O)NCc3ccn4ccnc4c3)cc2)C1 [Example 557, N-(imidazo[1,2-a]pyridin-7-ylmethyl)-4-[1-(propan-2-ylsulfonyl)azetidin-3-yl]benzamide] | 37.4 nM | 167 nM | 0.359 nM
CC(C)C(=O)N1CC(Oc2ccc(C(=O)NCc3ccn4ccnc4c3)cc2)C1 [Example 558, N-(imidazo[1,2-a]pyridin-7-ylmethyl)-4-{[1-(2-methylpropanoyl)azetidin-3-yl]oxy}benzamide] | 1170 nM | 1410 nM | 0.352 nM
CC[C@H](C)C(=O)N1CC(Oc2ccc(C(=O)NCc3ccn4ccnc4c3)cc2)C1 [Example 559, N-(imidazo[1,2-a]pyridin-7-ylmethyl)-4-({1-[(2S)-2-methylbutanoyl]azetidin-3-yl}oxy)benzamide] | 94.3 nM | 681 nM | 0.223 nM
O=C(NCc1ccn2ccnc2c1)c1ccc(OC2CN(C(=O)CC3CC3)C2)cc1 [Example 560, 4-{[1-(cyclopropylacetyl)azetidin-3-yl]oxy}-N-(imidazo[1,2-a]pyridin-7-ylmethyl)benzamide] | 844 nM | 969 nM | 0.312 nM
O=C(NCc1ccn2ccnc2c1)c1ccc(OC2CN(C(=O)c3ccccc3)C2)cc1 [Example 561, 4-[(1-benzoylazetidin-3-yl)oxy]-N-(imidazo[1,2-a]pyridin-7-ylmethyl)benzamide] | 240 nM | 869 nM | 0.335 nM
O=C(NCc1ccn2ccnc2c1)c1ccc(C2CCN(C(=O)c3ccc(F)cc3)C2)cc1 (stereo not drawn) [Example 562, 4-[1-(4-fluorobenzoyl)pyrrolidin-3-yl]-N-(imidazo[1,2-a]pyridin-7-ylmethyl)benzamide] | 70.9 nM | 218 nM | 0.607 nM
CC(C)(C)OC(=O)N1CCC(c2ccc(C(=O)NCc3ccn4ncnc4c3)cc2)CC1 [Example 563, tert-butyl 4-{4-[([1,2,4]triazolo[1,5-a]pyridin-7-ylmethyl)carbamoyl]phenyl}piperidine-1-carboxylate] | 5140 nM | 322 nM | 4.19 nM
O=C(CC1CCCC1)Nc1ccc(NC(=O)NCc2ccn3ncnc3c2)cc1 [Example 564, 2-cyclopentyl-N-(4-{[([1,2,4]triazolo[1,5-a]pyridin-7-ylmethyl)carbamoyl]amino}phenyl)acetamide] | 211 nM | 23.8 nM | 3.43 nM
CC(C)(C)OC(=O)N1CCC(c2ccc(NC(=O)NCc3ccn4ncnc4c3)cc2)CC1 [Example 565, tert-butyl 4-(4-{[([1,2,4]triazolo[1,5-a]pyridin-7-ylmethyl)carbamoyl]amino}phenyl)piperidine-1-carboxylate] | 891 nM | 215 nM | 5.38 nM
O=C(NCc1ccn2ccnc2c1)c1ccc(C(=O)N2CCCCC2)cc1 [Example 566, N-(imidazo[1,2-a]pyridin-7-ylmethyl)-4-(piperidin-1-ylcarbonyl)benzamide] | > 10000 nM | > 10000 nM | 216 nM
CCS(=O)(=O)N1CC(c2ccc(C(=O)NCc3ccn4ccnc4c3)cc2)C1 [Example 567, 4-[1-(ethylsulfonyl)azetidin-3-yl]-N-(imidazo[1,2-a]pyridin-7-ylmethyl)benzamide] | 237 nM | 403 nM | 1.11 nM
O=C(NCc1ccn2ccnc2c1)c1ccc(C2CN(S(=O)(=O)C3CC3)C2)cc1 [Example 568, 4-[1-(cyclopropylsulfonyl)azetidin-3-yl]-N-(imidazo[1,2-a]pyridin-7-ylmethyl)benzamide] | 180 nM | 375 nM | 0.723 nM
O=C(NCc1ccn2ccnc2c1)c1ccc(C2CN(S(=O)(=O)c3ccccc3)C2)cc1 [Example 569, N-(imidazo[1,2-a]pyridin-7-ylmethyl)-4-[1-(phenylsulfonyl)azetidin-3-yl]benzamide] | 226 nM | 217 nM | 0.669 nM
CC(C)OC(=O)N1CCC(c2ccc(C(=O)NCc3ccn4ccnc4c3)s2)CC1 [Example 570, propan-2-yl-4-{5-[(imidazo[1,2-a]pyridin-7-ylmethyl)carbamoyl]thiophen-2-yl}piperidine-1-carboxylate] | 7.35 nM | 70.4 nM | 0.751 nM
CC(C)COC(=O)N1CCC(c2ccc(C(=O)NCc3ccn4ccnc4c3)s2)CC1 [Example 571, 2-methylpropyl 4-{5-[(imidazo[1,2-a]pyridin-7-ylmethyl)carbamoyl]thiophen-2-yl}piperidine-1-carboxylate] | 22.9 nM | 41.7 nM | 0.494 nM
O=C(NCc1ccn2ccnc2c1)c1ccc(C2CCN(C(=O)CC(F)(F)F)CC2)s1 [Example 572, N-(imidazo[1,2-a]pyridin-7-ylmethyl)-5-[1-(3,3,3-trifluoropropanoyl)piperidin-4-yl]thiophene-2-carboxamide] | 6.66 nM | 51.6 nM | 0.403 nM
CC(C)CS(=O)(=O)N1CCC(c2ccc(C(=O)NCc3ccn4ccnc4c3)s2)CC1 [Example 573, N-(imidazo[1,2-a]pyridin-7-ylmethyl)-5-{1-[(2-methylpropyl)sulfonyl]piperidin-4-yl}thiophene-2-carboxamide] | 3.72 nM | 24.2 nM | 0.403 nM
O=C(NCc1ccn2ccnc2c1)c1ccc(C2CCN(C(=O)CCC(F)(F)F)CC2)s1 [Example 574, N-(imidazo[1,2-a]pyridin-7-ylmethyl)-5-[1-(4,4,4-trifluorobutanoyl)piperidin-4-yl]thiophene-2-carboxamide] | 5.2 nM | 97.5 nM | 0.505 nM
CC(C)C(=O)N1CCC(c2ccc(C(=O)NCc3ccn4c(Cl)cnc4c3)cc2)CC1 [Example 575, N-[(3-chloroimidazo[1,2-a]pyridin-7-yl)methyl]-4-[1-(2-methylpropanoyl)piperidin-4-yl]benzamide] | > 10000 nM | 3250 nM | 10.8 nM
CC1(Cn2cc(-c3ccc(C(=O)NCc4ccn5ccnc5c4)s3)cn2)CCOCC1 [Example 576, N-(imidazo[1,2-a]pyridin-7-ylmethyl)-5-{1-[(4-methyltetrahydro-2H-pyran-4-yl)methyl]-1H-pyrazol-4-yl}thiophene-2-carboxamide] | 0.569 nM | 16 nM | 0.783 nM
